# Patent publication US5962480A, “Drug for ameliorating brain diseases” (Wakunaga Pharmaceutical Co., Ltd., priority 1995, dated 1999)
# Tested on: hippocampus neurons
# Experiment: inhibition of reduction in survival rate of neurons, hippocampus (number of surviving cells)
# Format: cell-based, rat
# Conditions: Rattus norvegicus, Neuron, 72 h; 10^-6 g/ml; control 100%; read-out: Inhibitory effect against reduction in survival rate of neurons (survival rate class)
# Protocol: From a rat at the 18th day of pregnancy (having an 18 -day old embryo) the uterus was aseptically removed under etherification, and the fetus was obtained. The whole brain was collected from the fetus. From the brain placed in an L-15 medium were removed under a microscope the hippocampus, striate body, septum, cerebral cortex, and cerebellum. They were respectively minced with a knife. The minced tissue was treated by the addition of trypsin (0.25%) and DNase (0.01%) for 30 minutes at 37° C. to thereby isolate cells. The thus-isolated cells were suspended in Eagle's MEM medium supplemented with 10% fetal calf serum, and inoculated at a concentration of 4×10^4 cells/cm^2 into wells of a 48-well plate which had been coated with poly-L-lysin in advance. Following incubation for 24 hours, the medium was replaced by a serum-free DMEM/F-12 medium containing the drug. After three-days' additional incubation (six days for the striate body), the cells were fixed, stained, and the number of surviving cells in each well was counted. Compounds (2) through (14) were tested analogously to Example 1 using hippocampus cells prepared in a manner similar to Example 1. As structural comparative compounds, the following compounds were used: 4H-pyran-4-one (hereinafter referred as Compound (15) and 3-methoxy-6 -hydroxymethyl-4H-pyran-4-one (hereinafter referred to as Compound (16)).
row,SMILES,viability at 1 µg/mL [%]
1,"CCCCCc1oc(C)cc(=O)c1O [Compound (5), 3-Hydroxy-6-methyl-2-pentyl-4H-pyran-4-one]",≤ 90
2,"CCCCCc1oc(C)c(O)c(=O)c1O [Compound (11), 3,5-Dihydroxy-6-methyl-2-pentyl-4H-pyran-4-one]",≤ 90

# Same assay, conditions: Rattus norvegicus, Neuron, 72 h; 10^-7 g/ml; control 100%; read-out: Inhibitory effect against reduction in survival rate of neurons (survival rate class)
row,SMILES,viability at 0.1 µg/mL [%]
1,"CCCCCc1oc(C)cc(=O)c1O [Compound (5), 3-Hydroxy-6-methyl-2-pentyl-4H-pyran-4-one]",110 to 130
2,"CCCCCc1oc(C)c(O)c(=O)c1O [Compound (11), 3,5-Dihydroxy-6-methyl-2-pentyl-4H-pyran-4-one]",130 to 150

# Same assay, conditions: Rattus norvegicus, Neuron, 72 h; 10^-8 g/ml; control 100%; read-out: Inhibitory effect against reduction in survival rate of neurons (survival rate class)
row,SMILES,viability at 0.01 µg/mL [%]
1,"CCCCCc1oc(C)cc(=O)c1O [Compound (5), 3-Hydroxy-6-methyl-2-pentyl-4H-pyran-4-one]",90 to 110
2,"CCCCCc1oc(C)c(O)c(=O)c1O [Compound (11), 3,5-Dihydroxy-6-methyl-2-pentyl-4H-pyran-4-one]",90 to 110

# Same assay, conditions: Rattus norvegicus, Neuron, 72 h; 10^-9 g/ml; control 100%; read-out: Inhibitory effect against reduction in survival rate of neurons (survival rate class)
row,SMILES,viability at 0.001 µg/mL [%]
1,"CCCCCc1oc(C)cc(=O)c1O [Compound (5), 3-Hydroxy-6-methyl-2-pentyl-4H-pyran-4-one]",90 to 110
2,"CCCCCc1oc(C)c(O)c(=O)c1O [Compound (11), 3,5-Dihydroxy-6-methyl-2-pentyl-4H-pyran-4-one]",90 to 110
